Data on ten molecules can be found in ChEMBL document CHEMBL1201862, “PubChem BioAssay data set” (2004).

SMILES strings stand for the structures.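 Five concentrations, 48 hours, 96-well plates. At the GI50, growth is halved.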 Activity calls are given as the source filed them. Rule as the data show it: active = GI50 up to about 1.1 µM and inactive = higher.

Some test systems named below: U-251; Hs-578T; PC-3; SR; COLO 205; 786-0; Malme-3M; LOX IMVI; NCI-H226; A498; M14; NCI-H23; HL-60; BT-549; SNB-75; OVCAR-4; RPMI-8226; T47D; HCC 2998; OVCAR-5.
Common to all, as to experiment: NCI-60 cell line screen, 48 h

For the molecule `COc1cc(/C=C2\C[C@H]3[C@@H]4CC=C5C[C@@H](N6CCCC6)CC[C@]5(C)[C@H]4CC[C@]3(C)[C@H]2O)cc(OC)c1OC`, the GI50 in the experiment on U-251 is 15.4 µM (inactive); in the experiment with Hs-578T, 6.11 µM (inactive); in the experiment on PC-3, 13.4 µM (inactive); with SR it was 2.63 µM (inactive); with COLO 205 it was 14.8 µM (inactive); in the experiment with 786-0, 4.11 µM (inactive). Besides, the GI50 with Malme-3M is 11.7 µM (inactive); in the experiment with LOX IMVI, 8.57 µM (inactive); in the experiment on NCI-H226 it was 21.2 µM (inactive); with A498, 16.6 µM (inactive); in the experiment with M14, 2.2 µM (inactive); in the experiment with NCI-H23, 14.9 µM (inactive). In addition, the GI50 in the experiment on HL-60 was 9.12 µM (inactive); in the experiment with BT-549, 16.1 µM (inactive); in the experiment with SNB-75, 12.1 µM (inactive); in the experiment on OVCAR-4, 13.8 µM (inactive); in the experiment with RPMI-8226 it was 6.4 µM (inactive); with T47D it was 20 µM (inactive). Besides, the results for the GI50 in the experiment with HCC 2998 and in the experiment with OVCAR-5 were 7.83 µM (inactive) and 8.79 µM (inactive), respectively.

Consider `O=c1c2c(no[n+]2[O-])c2ccccc2n1-c1ccccc1`, for which the GI50 is 5.19 µM (inactive) in the experiment with U-251; 18.6 µM (inactive) with Hs-578T; 14.3 µM (inactive) with PC-3; 2.82 µM (inactive) in the experiment on SR; 12.2 µM (inactive) in the experiment with COLO 205; 2.89 µM (inactive) with 786-0. In addition, the GI50 in the experiment on Malme-3M was 5.7 µM (inactive); in the experiment with LOX IMVI, 1.69 µM (inactive); in the experiment on NCI-H226, 9.93 µM (inactive); in the experiment on A498, 15.6 µM (inactive); with M14, 2.65 µM (inactive); in the experiment with NCI-H23, 2.44 µM (inactive). The GI50 is 2.12 µM (inactive) in the experiment on HL-60; 3.03 µM (inactive) in the experiment with BT-549; 10 µM (inactive) in the experiment on SNB-75; 6.18 µM (inactive) with OVCAR-4; 5.87 µM (inactive) in the experiment on RPMI-8226; 12.9 µM (inactive) in the experiment on T47D. The results for the GI50 in the experiment with HCC 2998 and in the experiment on OVCAR-5 were 10.5 µM (inactive) and 14.8 µM (inactive), respectively.

Turning to `Brc1ccc(CCNCCN2CCCCC2)cc1`, the GI50 in the experiment with U-251 is 18.4 µM (inactive); in the experiment with Hs-578T, 20.3 µM (inactive); in the experiment on PC-3, 15.6 µM (inactive); in the experiment with SR, > 100 µM (inactive); with COLO 205 it was 12.9 µM (inactive); in the experiment with 786-0, 14.1 µM (inactive). For the same molecule, the GI50 with Malme-3M is 17.7 µM (inactive); with LOX IMVI, 14.1 µM (inactive); in the experiment with NCI-H226, 37.8 µM (inactive); with A498 it was 18 µM (inactive); with M14, 15.6 µM (inactive); with NCI-H23 it was 16.4 µM (inactive). The GI50 in the experiment with HL-60 is 33 µM (inactive); in the experiment on BT-549, 15.7 µM (inactive); with SNB-75, 12.8 µM (inactive); with OVCAR-4, 19.3 µM (inactive); in the experiment on RPMI-8226, 37.7 µM (inactive); with T47D, 15.6 µM (inactive). Further, the GI50 is 14.5 µM (inactive) with HCC 2998 and 17 µM (inactive) with OVCAR-5.

On to `COc1cc(CCNC2=CC(=O)c3nc[nH]c3C2=O)ccc1O`, for which the GI50 with U-251 is 23.7 µM (inactive); with Hs-578T, 25.2 µM (inactive); in the experiment with PC-3, 26.4 µM (inactive); in the experiment with SR, 30.7 µM (inactive); in the experiment with COLO 205 it was 22.6 µM (inactive); in the experiment with 786-0, 35.7 µM (inactive). The GI50 in the experiment on Malme-3M is 13.1 µM (inactive); with LOX IMVI it was 19 µM (inactive); with NCI-H226, 31.5 µM (inactive); with A498, 34.4 µM (inactive); in the experiment on M14, 17.5 µM (inactive); with NCI-H23, 20.7 µM (inactive). Also, the GI50 was 25.6 µM (inactive) in the experiment on HL-60; 24.7 µM (inactive) in the experiment with BT-549; 19 µM (inactive) in the experiment on SNB-75; 15.4 µM (inactive) in the experiment with OVCAR-4; 29.4 µM (inactive) in the experiment on RPMI-8226; 20.7 µM (inactive) with T47D. Moreover, the GI50 with HCC 2998 was 20.7 µM (inactive); with OVCAR-5 it was 18.6 µM (inactive).

In the case of `C/C(=N/NC(=S)N1CCCCC1)c1ccccc1O`, the GI50 with U-251 was > 31.6 µM (inactive); in the experiment on Hs-578T it was 20.1 µM (inactive); with PC-3, 28.8 µM (inactive); in the experiment with SR, > 10 µM (inactive); with COLO 205 it was 23.4 µM (inactive); in the experiment on 786-0 it was > 31.6 µM (inactive). Moreover, the GI50 with Malme-3M is > 31.6 µM (inactive); in the experiment with LOX IMVI, > 31.6 µM (inactive); in the experiment with NCI-H226 it was > 31.6 µM (inactive); in the experiment on A498, > 100 µM (inactive); in the experiment with M14, > 31.6 µM (inactive); in the experiment with NCI-H23 it was > 31.6 µM (inactive). Also, the GI50 in the experiment on HL-60 was > 31.6 µM (inactive); in the experiment with BT-549, > 100 µM (inactive); in the experiment on SNB-75 it was > 10 µM (inactive); in the experiment with OVCAR-4, > 31.6 µM (inactive); with RPMI-8226, 13.6 µM (inactive); in the experiment with T47D, 8.26 µM (inactive). Moreover, the GI50 with HCC 2998 and with OVCAR-5 was > 31.6 µM (inactive) throughout.

With `O=C(N/N=C\c1ccc(Cl)cc1)Nc1cccc2ccccc12`, the GI50 is 2.96 µM (inactive) in the experiment with U-251; 2.67 µM (inactive) with Hs-578T; 5.97 µM (inactive) with PC-3; 3.16 µM (inactive) in the experiment on SR; 4.75 µM (inactive) with COLO 205; 1.98 µM (inactive) with 786-0. In addition, the GI50 with Malme-3M is 4.24 µM (inactive); in the experiment on LOX IMVI, 4.49 µM (inactive); in the experiment with NCI-H226, 10.4 µM (inactive); in the experiment on A498 it was 2.67 µM (inactive); with M14, 7.16 µM (inactive); with NCI-H23 it was 9.71 µM (inactive). For the same molecule, the GI50 in the experiment with HL-60 was 4.93 µM (inactive); in the experiment on BT-549 it was 21.7 µM (inactive); with SNB-75, 2.4 µM (inactive); in the experiment with OVCAR-4, 2.59 µM (inactive); in the experiment on RPMI-8226 it was 5.66 µM (inactive); in the experiment on T47D, 5.52 µM (inactive). Moreover, the GI50 with HCC 2998 was 2.4 µM (inactive); with OVCAR-5, 25.8 µM (inactive).

In the case of `CCOP(=O)(OCC)C(c1ccccc1)N(C(=O)NC(F)(F)F)c1ccc(C)cc1` (stereo not given), the GI50 in the experiment on U-251 was > 100 µM (inactive); in the experiment on Hs-578T, 69.5 µM (inactive); in the experiment with PC-3 it was > 100 µM (inactive); in the experiment on SR it was > 100 µM (inactive); in the experiment on COLO 205, > 100 µM (inactive); in the experiment on 786-0 it was > 100 µM (inactive). In addition, the GI50 in the experiment on Malme-3M, in the experiment on LOX IMVI, with NCI-H226, with A498, with M14 and in the experiment on NCI-H23 was > 100 µM (inactive) in each case. The GI50 in the experiment on HL-60 is > 100 µM (inactive); in the experiment on BT-549 it was > 100 µM (inactive); in the experiment on SNB-75, > 100 µM (inactive); in the experiment on OVCAR-4, > 100 µM (inactive); in the experiment with RPMI-8226, > 100 µM (inactive); with T47D, 83.4 µM (inactive). Moreover, the GI50 in the experiment with HCC 2998 and in the experiment with OVCAR-5 was > 100 µM (inactive) each time.

On to `O=c1cc(/N=N\c2ccc(Cl)cc2)[nH]c(=O)[nH]1`, for which the GI50 in the experiment with U-251 was 4.81 µM (inactive); in the experiment with Hs-578T it was 5.68 µM (inactive); in the experiment with PC-3 it was 7.05 µM (inactive); in the experiment on SR, 1.2 µM (inactive); with COLO 205, 2.33 µM (inactive); in the experiment with 786-0, 1.66 µM (inactive). In addition, the GI50 is 3.01 µM (inactive) with Malme-3M; 1.57 µM (inactive) in the experiment on LOX IMVI; 12.9 µM (inactive) in the experiment with NCI-H226; > 10 µM (inactive) in the experiment with A498; 3.95 µM (inactive) in the experiment with M14; 7.67 µM (inactive) with NCI-H23. Also, the GI50 in the experiment on HL-60 is 1.11 µM (active); with BT-549, 3.88 µM (inactive); in the experiment on SNB-75, 14.5 µM (inactive); in the experiment with OVCAR-4, 4.42 µM (inactive); in the experiment on RPMI-8226 it was 3.19 µM (inactive); with T47D, 3.18 µM (inactive). For the same molecule, the GI50 in the experiment on HCC 2998 was 3.78 µM (inactive); with OVCAR-5, 13.6 µM (inactive).

`Cc1ccc(/C=C2\CCCCCC2=O)cc1`: the GI50 in the experiment on U-251, in the experiment with Hs-578T, in the experiment with PC-3, with SR, in the experiment with COLO 205 and in the experiment with 786-0 was > 100 µM (inactive) throughout. The GI50 in the experiment with Malme-3M, in the experiment on LOX IMVI, in the experiment with NCI-H226, in the experiment on A498, in the experiment with M14 and in the experiment on NCI-H23 was > 100 µM (inactive) throughout. Moreover, the GI50 was < 0.01 µM (active) with HL-60; > 100 µM (inactive) in the experiment on BT-549; > 100 µM (inactive) in the experiment with SNB-75; > 100 µM (inactive) with OVCAR-4; > 100 µM (inactive) in the experiment with RPMI-8226; > 100 µM (inactive) in the experiment on T47D. The GI50 in the experiment on HCC 2998 and in the experiment with OVCAR-5 was > 100 µM (inactive) in each case.

Regarding `COc1cc(/C=C2\CC/C(=C\c3cc(OC)c(O)c(OC)c3)C2=O)cc(OC)c1O`, the GI50 is 2.06 µM (inactive) in the experiment with U-251; 2.09 µM (inactive) in the experiment on Hs-578T; 2.62 µM (inactive) in the experiment with PC-3; 2.88 µM (inactive) with SR; 17.1 µM (inactive) with COLO 205; 4.9 µM (inactive) with 786-0. The GI50 with Malme-3M is 0.345 µM (active); in the experiment with LOX IMVI it was 2.29 µM (inactive); in the experiment with NCI-H226, 3.94 µM (inactive); in the experiment with A498 it was 1.01 µM (active); in the experiment on M14 it was 2.19 µM (inactive); in the experiment with NCI-H23, 1.98 µM (inactive). Besides, the GI50 in the experiment on HL-60 is 1.51 µM (inactive); with BT-549, 2.69 µM (inactive); in the experiment on SNB-75 it was 1.19 µM (inactive); in the experiment with OVCAR-4, 1.69 µM (inactive); in the experiment with RPMI-8226, 1.04 µM (active); with T47D, 2.32 µM (inactive). Also, the GI50 with HCC 2998 is 1.67 µM (inactive); with OVCAR-5 it was 6.18 µM (inactive).
